Measurements from US10137113B2, “5-HT4 receptor agonist as a prokinetic agent” (RaQualia Pharma Inc., priority 2011, dated 2018).

Assays:
[1] = system: gastric antrum of conscious dogs; test: Gastric antral motility by implanted force transducers, fasted conscious dogs, oral dosing; assay type: in vivo, dog
Description: (§1) GI motility was assessed by processing the signals from the force transducers implanted in dogs prepared for investigation of motility. Briefly, dogs were anesthetized with isoflurane and the abdominal cavity was opened under aseptic conditions. Extraluminal force transducers (F-12IS, Star Medical, Tokyo) were sutured onto the seromuscular layer of the gastric antrum, the gastric body, the duodenum, and the proximal colon. After the surgery, protective jackets were placed on the dogs and they were housed in individual cages. The dogs were fasted overnight before the experiment and placed in the shield room. The motility was measured with a telemetry system (GTS-800, Star Medical, Tokyo) and data acquired into a personal computer with the acquisition software (Eight Star, Star Medical, Tokyo). After confirmation of interdigestive migrating complex (IMC), the test drugs were administered orally. Gut motility was then recorded more than 5 hours (hrs). To measure the gastric motility quantitatively, motor indexes that represent areas of contractions were calculated. The signals from the force transducer were acquired on a personal computer and analyzed by processing software (Analyze II; StarMedical). In the fasted state, the areas surrounded by the contraction curve and the baseline were determined every 2 hrs after administration. For standardization, the calculated areas were divided by the IMC peak height before administration, and they were used as the motor index (MI). Results are presented as the mean+/− standard error of the mean (S.E.M., N=4-5). Statistical analysis was performed with Dunnett's multiple comparison test using GraphPad Prism (GraphPad Software, Inc.).

[2] = system: proximal colon of conscious dogs; test: Proximal colon motility by implanted force transducers, fasted conscious dogs, oral dosing; assay type: in vivo; conditions: dog
Description: as §1

[3] = system: gastric antrum and duodenum of conscious dogs; test: Gastro-duodenum contractions by implanted force transducers, fasted conscious dogs, oral dosing; assay type: in vivo; conditions: dog, 0.3 mg/kg (dose that enhances proximal colon motility), FIG. 5
Description: GI motility was assessed by processing the signals from the force transducers implanted in dogs prepared for investigation of motility. Briefly, dogs were anesthetized with isoflurane and the abdominal cavity was opened under aseptic conditions. Extraluminal force transducers (F-12IS, Star Medical, Tokyo) were sutured onto the seromuscular layer of the gastric antrum, the gastric body, the duodenum, and the proximal colon. After the surgery, protective jackets were placed on the dogs and they were housed in individual cages. The dogs were fasted overnight before the experiment and placed in the shield room. The motility was measured with a telemetry system (GTS-800, Star Medical, Tokyo) and data acquired into a personal computer with the acquisition software (Eight Star, Star Medical, Tokyo). […] Gut motility was then recorded more than 5 hours (hrs). To measure the gastric motility quantitatively, motor indexes that represent areas of contractions were calculated. The signals from the force transducer were acquired on a personal computer and analyzed by processing software (Analyze II; StarMedical). In the fasted state, the areas surrounded by the contraction curve and the baseline were determined every 2 hrs after administration. For standardization, the calculated areas were divided by the IMC peak height before administration, and they were used as the motor index (MI). […]

COc1cc(N)c(Cl)cc1C(=O)NC1CCN(CCCOc2ccc(F)cc2)CC1OC (stereo not drawn) [Cisapride, cisapride]
gastric antral motility ([1]; dog, fasted, oral, 1 mg/kg, FIG. 2): significantly increased gastric antral motility

O=C(O)C1(CN2CCC(COc3noc4cccc(OCC(F)(F)F)c34)CC2)CCOCC1 [Compound A, 4-{[4-({[4-(2,2,2-trifluoroethoxy)-1,2-benzisoxazol-3-yl]-oxy}methyl)piperidin-1-yl]methyl}tetrahydro-2H-pyran-4-carboxylic acid]
amplitude and frequency of contractions in the proximal colon ([2]; 1 micro g/kg, FIG. 4): enhanced | occurrence of giant migrating contractions ([2]; after treatment): facilitated the occurrence of giant migrating contractions | effects on GI motility / potency relative to other 5-HT4 agonists (cisapride, mosapride, tegaserod) ([1]; dog GI motility models): more than 100 times | potency relative to cisapride in enhancing gastric antral motility ([1]; dog, fasted, oral): approximately 1000 times | minimum effective dose, change in motor index (MI) of gastric antral motility ([1]; dog, fasted, oral, 0 to 2 hour period after administration, statistical significance (Dunnett)): 1 micro g/kg | gastric antral motor activity ([1]; dog, fasted, oral, 0.1-10 micro g/kg, FIG. 1): increased the gastric antral motor activity in dose dependent manner

CCOc1cc(N)c(Cl)cc1C(=O)NCC1CN(Cc2ccc(F)cc2)CCO1 (stereo not drawn) [mosapride]
gastric antral motility ([1]; dog, fasted, oral, 3 mg/kg, FIG. 3): tended to increase the antral motility

COCCCN1CCC(NC(=O)c2cc(Cl)c(N)c3c2OCC3)CC1 [prucalopride]
contractions of proximal colon ([2]; 0.1 mg/kg, FIG. 5): did not affect contractions of proximal colon | colonic motor activity ([2]; 0.3 mg/kg, FIG. 5): enhanced the colonic motor activity | gastric antral motility ([1]; dog, fasted, oral, 0.1 mg/kg, FIG. 5): stimulated gastric antral motility | gastro-duodenum contractions [3]: induced excessive gastro-duodenum contractions
